Assay results from patent publication US20100227840A1, “USE OF 25-HYDROXY VITAMIN D3 TO IMPROVE MALE ANIMAL FERTILITY” (priority 2005, published 2010).

Columns and labels:
pigs = assay: conception rate of pigs fertilized by boars administered 25-hydroxy vitamin D3; type: in vivo, pig; details: pigs fertilized by boars that were administered 25-hydroxy vitamin D3
boars = assay: administration of 25-hydroxy vitamin D3 to boars: quality of semen; type: in vivo, pig; details: administered to boars

Q: With `C=C1CC[C@H](O)C/C1=C/C=C1\CCC[C@]2(C)[C@@H]([C@H](C)CCCC(C)(C)O)CC[C@@H]12` [25-hydroxy vitamin D3] as the compound, how does the “conception rate in pigs” value (pigs) read?
A: increases the conception rate in pigs

Q: What about the “quality of boar semen” value (boars) of the same compound?
A: improves the quality of boar semen
